From the supplement of paper PMC10307832 come the findings set out here.

Each structure is given as a SMILES string.

The subject of the first test is 201T. As to the kind of experiment: relative viability (nuclei count vs DMSO), 5 days (fraction); higher = more cells survive. The settings on record: first compound 0.2 µM. In a few lines: (§1)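 A single step with final 0.05% Triton X-100, 1% formaldehyde and 1 ug/ml Hoechst fixed the cells and stained nuclei 5 days after treatment. Lung cancer cell lines in 1536-well plates had been treated by pin tool the day after seeding with one drug alone or a fixed anchor-drug dose plus five library-drug doses (not always all listed) in √10 steps, and nuclei were counted on 4× images. Relative viability is the ratio of nuclei in treated wells to nuclei in vehicle wells, taken as the median of duplicate plates.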
`COCC1(CO)C(=O)C2CCN1CC2` (stereo unspecified) [PRIMA-1MET] + Nc1ncn([C@H]2C[C@H](O)[C@@H](CO)O2)c(=O)n1 [Decitabine] (partner 2 µM) had a relative viability of 0.921.

Still in this test, the particulars now being: first compound 0.6325 µM.
Consider `COCC1(CO)C(=O)C2CCN1CC2` (stereo unspecified) [PRIMA-1MET] + COc1cc2c(Oc3ccc(NC(=O)C4(C(=O)Nc5ccc(F)cc5)CC4)cc3F)ccnc2cc1OCCCN1CCOCC1 [Foretinib] (partner 0.25 µM), for which the relative viability was 1.09.

In the case of `COCC1(CO)C(=O)C2CCN1CC2` (stereo unspecified) [PRIMA-1MET] + NC(=O)Nc1cc(-c2cccc(F)c2)sc1C(=O)N[C@H]1CCCNC1 [AZD7762] (partner 0.2 µM), the relative viability came to 0.578.

For `COCC1(CO)C(=O)C2CCN1CC2` (stereo unspecified) [PRIMA-1MET] + Nc1nc2[nH]cc(CCc3ccc(C(=O)N[C@@H](CCC(=O)O)C(=O)O)cc3)c2c(=O)[nH]1 [Pemetrexed] (partner 0.2 µM), the relative viability was determined as 0.339.

`COCC1(CO)C(=O)C2CCN1CC2` (stereo unspecified) [PRIMA-1MET] + CC(=O)Nc1cccc(-n2c(=O)n(C3CC3)c(=O)c3c(Nc4ccc(I)cc4F)n(C)c(=O)c(C)c32)c1 [Trametinib] (partner 0.02 µM) had a relative viability of 0.74.

On to `COCC1(CO)C(=O)C2CCN1CC2` (stereo unspecified) [PRIMA-1MET] + Nc1ncn([C@H]2C[C@H](O)[C@@H](CO)O2)c(=O)n1 [Decitabine] (partner 2 µM), for which the relative viability was 0.607.

Still in this test, the particulars now being: first compound 2 µM.
Molecule `COCC1(CO)C(=O)C2CCN1CC2` (stereo unspecified) [PRIMA-1MET] + COc1cc2c(Oc3ccc(NC(=O)C4(C(=O)Nc5ccc(F)cc5)CC4)cc3F)ccnc2cc1OCCCN1CCOCC1 [Foretinib] (partner 0.25 µM) gave a relative viability of 0.97.

The molecule `COCC1(CO)C(=O)C2CCN1CC2` (stereo unspecified) [PRIMA-1MET] + NC(=O)Nc1cc(-c2cccc(F)c2)sc1C(=O)N[C@H]1CCCNC1 [AZD7762] (partner 0.2 µM) showed a relative viability of 0.626.

Take `COCC1(CO)C(=O)C2CCN1CC2` (stereo unspecified) [PRIMA-1MET] + Nc1nc2[nH]cc(CCc3ccc(C(=O)N[C@@H](CCC(=O)O)C(=O)O)cc3)c2c(=O)[nH]1 [Pemetrexed] (partner 0.2 µM): the relative viability worked out at 0.332.

`COCC1(CO)C(=O)C2CCN1CC2` (stereo unspecified) [PRIMA-1MET] + CC(=O)Nc1cccc(-n2c(=O)n(C3CC3)c(=O)c3c(Nc4ccc(I)cc4F)n(C)c(=O)c(C)c32)c1 [Trametinib] (partner 0.02 µM) gave a relative viability of 0.684.

Molecule `COCC1(CO)C(=O)C2CCN1CC2` (stereo unspecified) [PRIMA-1MET] + Nc1ncn([C@H]2C[C@H](O)[C@@H](CO)O2)c(=O)n1 [Decitabine] (partner 2 µM) yielded a relative viability of 0.762.

Still in this test, the particulars now being: first compound 6.325 µM.
`COCC1(CO)C(=O)C2CCN1CC2` (stereo unspecified) [PRIMA-1MET] + COc1cc2c(Oc3ccc(NC(=O)C4(C(=O)Nc5ccc(F)cc5)CC4)cc3F)ccnc2cc1OCCCN1CCOCC1 [Foretinib] (partner 0.25 µM) had a relative viability of 1.15.

In turn, `COCC1(CO)C(=O)C2CCN1CC2` (stereo unspecified) [PRIMA-1MET] + NC(=O)Nc1cc(-c2cccc(F)c2)sc1C(=O)N[C@H]1CCCNC1 [AZD7762] (partner 0.2 µM) came in with a relative viability of 0.577.

The molecule `COCC1(CO)C(=O)C2CCN1CC2` (stereo unspecified) [PRIMA-1MET] + Nc1nc2[nH]cc(CCc3ccc(C(=O)N[C@@H](CCC(=O)O)C(=O)O)cc3)c2c(=O)[nH]1 [Pemetrexed] (partner 0.2 µM) returned a relative viability of 0.346.

In turn, `COCC1(CO)C(=O)C2CCN1CC2` (stereo unspecified) [PRIMA-1MET] + CC(=O)Nc1cccc(-n2c(=O)n(C3CC3)c(=O)c3c(Nc4ccc(I)cc4F)n(C)c(=O)c(C)c32)c1 [Trametinib] (partner 0.02 µM) displayed a relative viability of 0.749.

Molecule `COCC1(CO)C(=O)C2CCN1CC2` (stereo unspecified) [PRIMA-1MET] + Nc1ncn([C@H]2C[C@H](O)[C@@H](CO)O2)c(=O)n1 [Decitabine] (partner 2 µM) came in with a relative viability of 0.87.

Staying with this test, now noted: first compound 20 µM.
With `COCC1(CO)C(=O)C2CCN1CC2` (stereo unspecified) [PRIMA-1MET] + COc1cc2c(Oc3ccc(NC(=O)C4(C(=O)Nc5ccc(F)cc5)CC4)cc3F)ccnc2cc1OCCCN1CCOCC1 [Foretinib] (partner 0.25 µM), the relative viability was 1.08.

With `COCC1(CO)C(=O)C2CCN1CC2` (stereo unspecified) [PRIMA-1MET] + NC(=O)Nc1cc(-c2cccc(F)c2)sc1C(=O)N[C@H]1CCCNC1 [AZD7762] (partner 0.2 µM), the relative viability was 0.563.

Molecule `COCC1(CO)C(=O)C2CCN1CC2` (stereo unspecified) [PRIMA-1MET] + Nc1nc2[nH]cc(CCc3ccc(C(=O)N[C@@H](CCC(=O)O)C(=O)O)cc3)c2c(=O)[nH]1 [Pemetrexed] (partner 0.2 µM) came in with a relative viability of 0.328.

For the molecule `COCC1(CO)C(=O)C2CCN1CC2` (stereo unspecified) [PRIMA-1MET] + CC(=O)Nc1cccc(-n2c(=O)n(C3CC3)c(=O)c3c(Nc4ccc(I)cc4F)n(C)c(=O)c(C)c32)c1 [Trametinib] (partner 0.02 µM), the relative viability stood at 0.721.

Molecule `COCC1(CO)C(=O)C2CCN1CC2` (stereo unspecified) [PRIMA-1MET] + Nc1ncn([C@H]2C[C@H](O)[C@@H](CO)O2)c(=O)n1 [Decitabine] (partner 2 µM) had a relative viability of 0.896.

Another test relates to H3255. The description is as above. The settings on record: first compound 0.2 µM. In a few lines: as §1
For `COCC1(CO)C(=O)C2CCN1CC2` (stereo unspecified) [PRIMA-1MET] + COc1cc2c(Oc3ccc(NC(=O)C4(C(=O)Nc5ccc(F)cc5)CC4)cc3F)ccnc2cc1OCCCN1CCOCC1 [Foretinib] (partner 0.25 µM), the relative viability was 0.822.

`COCC1(CO)C(=O)C2CCN1CC2` (stereo unspecified) [PRIMA-1MET] + NC(=O)Nc1cc(-c2cccc(F)c2)sc1C(=O)N[C@H]1CCCNC1 [AZD7762] (partner 0.2 µM) gave a relative viability of 0.945.

In turn, `COCC1(CO)C(=O)C2CCN1CC2` (stereo unspecified) [PRIMA-1MET] + Nc1nc2[nH]cc(CCc3ccc(C(=O)N[C@@H](CCC(=O)O)C(=O)O)cc3)c2c(=O)[nH]1 [Pemetrexed] (partner 0.2 µM) registered a relative viability of 0.634.

As for `COCC1(CO)C(=O)C2CCN1CC2` (stereo unspecified) [PRIMA-1MET] + CC(=O)Nc1cccc(-n2c(=O)n(C3CC3)c(=O)c3c(Nc4ccc(I)cc4F)n(C)c(=O)c(C)c32)c1 [Trametinib] (partner 0.02 µM), the relative viability turned out to be 0.51.

Consider `COCC1(CO)C(=O)C2CCN1CC2` (stereo unspecified) [PRIMA-1MET] + Nc1ncn([C@H]2C[C@H](O)[C@@H](CO)O2)c(=O)n1 [Decitabine] (partner 2 µM), for which the relative viability was determined as 0.553.

The same test, now with this note: first compound 0.6325 µM.
Molecule `COCC1(CO)C(=O)C2CCN1CC2` (stereo unspecified) [PRIMA-1MET] + COc1cc2c(Oc3ccc(NC(=O)C4(C(=O)Nc5ccc(F)cc5)CC4)cc3F)ccnc2cc1OCCCN1CCOCC1 [Foretinib] (partner 0.25 µM) yielded a relative viability of 0.947.

Turning to `COCC1(CO)C(=O)C2CCN1CC2` (stereo unspecified) [PRIMA-1MET] + NC(=O)Nc1cc(-c2cccc(F)c2)sc1C(=O)N[C@H]1CCCNC1 [AZD7762] (partner 0.2 µM), the relative viability came out at 0.873.

In turn, `COCC1(CO)C(=O)C2CCN1CC2` (stereo unspecified) [PRIMA-1MET] + Nc1nc2[nH]cc(CCc3ccc(C(=O)N[C@@H](CCC(=O)O)C(=O)O)cc3)c2c(=O)[nH]1 [Pemetrexed] (partner 0.2 µM) showed a relative viability of 0.458.

`COCC1(CO)C(=O)C2CCN1CC2` (stereo unspecified) [PRIMA-1MET] + CC(=O)Nc1cccc(-n2c(=O)n(C3CC3)c(=O)c3c(Nc4ccc(I)cc4F)n(C)c(=O)c(C)c32)c1 [Trametinib] (partner 0.02 µM): the relative viability is 0.625.

Consider `COCC1(CO)C(=O)C2CCN1CC2` (stereo unspecified) [PRIMA-1MET] + Nc1ncn([C@H]2C[C@H](O)[C@@H](CO)O2)c(=O)n1 [Decitabine] (partner 2 µM), for which the relative viability was 0.54.
